Experimental data: US8507537B2, “Trifluromethoxyphenyl-substituted tetramic acid derivatives pesticides and/or herbicides” (Bayer CropScience AG, priority 2006, dated 2013)

Legend:
Assay type in all cases: in vivo
[1] = tested on: rice brown planthopper (Nilaparvata lugens); assay: Nilaparvata lugens test (NILALU hydroponic treatment); conditions: concentration of 500 ppm after 7 d
Procedure: NILALU Hydroponic Treatment
• 78 parts by weight of acetone • 1.5 parts by weight of dimethylformamide Emulsifier: • 0.5 part by weight of alkylaryl polyglycol ether
To produce a suitable preparation of active compound, 1 part by weight of active compound is mixed with the stated amounts of solvents and emulsifier, and the concentrate is diluted with emulsifier-containing water to the desired concentration.
The active compound preparation is pipetted into water. The stated concentration refers to the amount of active compound per volume unit of water (mg/l=ppm); the infection with the rice brown planthopper (Nilaparvata lugens) is then carried out.
After the desired period of time, the effect in % is determined. 100% means that all rice planthoppers have been killed; 0% means that none of the rice planthoppers have been killed.

[2] = tested on: cotton aphid (Aphis gossypii); assay: Activity boost through ammonium/phosphonium salts, Aphis gossypii test
Procedure: (§1) Solvent: 7 parts by weight of dimethylformamide
(§2) Emulsifier: 2 parts by weight of alkylaryl polyglycol ether
To produce a suitable preparation of active compound, 1 part by weight of active compound is mixed with the stated amounts of solvent and emulsifier, and the concentrate is diluted with emulsifier-containing water to the desired concentration. For application with ammonium salts or phosphonium salts these are added in a concentration of 1000 ppm a.i. to the spray liquor.
(§3) Cotton plants (Gossypium hirsutum) heavily infested by the cotton aphid (Aphis gossypii) are sprayed to runoff with the preparation of active compound at the desired concentration.
(§4) After the desired period of time, the kill in % is determined. 100% means that all aphids have been killed; 0% means that none of the aphids have been killed.

[3] = tested on: green peach aphid (Myzus persicae); assay: Activity boost through ammonium/phosphonium salts in combination with penetration promoters, Myzus persicae test; conditions: 20 ppm active compound
Procedure: Activity Boost Through Ammonium/Phosphonium Salts in Combination with Penetration Promoters
as §1, §2
To produce a suitable preparation of active compound, 1 part by weight of active compound is mixed with the stated amounts of solvent and emulsifier, and the concentrate is diluted with water to the desired concentration. For application with ammonium salts or phosphonium salts and penetration promoters (rapeseed oil methyl ester 500 EW) these are in each case added in a concentration of 1000 ppm to the spray liquor.
Bell pepper plants (Capsicum annuum) heavily infested by the green peach aphid (Myzus persicae) are sprayed to runoff with the preparation of active compound at the desired concentration. After the desired time, the kill in % is determined. 100% means that all of the animals have been killed; 0% means that no animals have been killed.

[4] = tested on: green peach aphid (Myzus persicae); assay: Activity boost through ammonium/phosphonium salts, Myzus persicae test; conditions: 20 ppm active compound
Procedure: Activity Boost Through Ammonium/Phosphonium Salts
as §1, §2
To produce a suitable preparation of active compound, 1 part by weight of active compound is mixed with the stated amounts of solvent and emulsifier, and the concentrate is diluted with water to the desired concentration. For application with ammonium salts or phosphonium salts these are added in a concentration of 1000 ppm a.i. to the spray liquor.
Bell pepper plants (Capsicum annuum) which are heavily infested by the Green peach aphid (Myzus persicae) are treated with the active compound preparation of the desired concentration by spraying to runoff point. After the desired period of time, the kill in % is determined. 100% means that all animals have been killed; 0% means that none of the animals have been killed.

[5] = tested on: cotton aphid (Aphis gossypii); assay: Activity boost through ammonium/phosphonium salts in combination with penetration promoters, Aphis gossypii test; conditions: 4 ppm active compound
Procedure: as §1, §2
To produce a suitable preparation of active compound, 1 part by weight of active compound is mixed with the stated amounts of solvent and emulsifier, and the concentrate is diluted with emulsifier-containing water to the desired concentration. For application with ammonium salts or phosphonium salts and penetration promoters (rapeseed oil methyl ester 500 EW) these are in each case added in a concentration of 1000 ppm a.i. to the spray liquor.
as §3, §4

Summer wheat = assay: Greenhouse container trials with cereals, use of safeners (post-emergence herbicidal effect on crop)
Procedure: (§5) Post-Emergence Herbicidal Effect
Seeds of monocotyledonous and dicotyledonous weed plants and crop plants are placed in sandy loam soil in wood fibre pots or in plastic pots and are covered with earth and cultivated in a greenhouse and also, during the vegetation period, outdoors, outside of the greenhouse, under good growth conditions. 2 to 3 weeks after sowing, the trial plants are treated at the one- to three-leaf stage. The test compounds, formulated as wettable powders (WP) or liquids (EC), are sprayed onto the plants and the soil surface in various dosages, with a water application rate of 300 l/ha (converted) and with addition of wetting agent (0.2% to 0.3%). […]
(§6) If the testing is also to look at whether safeners can improve the tolerance of the crop plants for test substances, the following options are used for the application of the safener: • seeds of the crop plants are dressed with the safener substance prior to sowing (the amount of safener is stated as a percentage, based on the seed weight) • crop plants are sprayed with the safener, with a defined application rate per hectare, prior to application of the test substances (typically 1 day before the test substances are applied) • the safener is applied together with the test substance in the form of a tank mix (the amount of safener is reported in g/ha or as a proportion relative to the herbicide).
(§7) By comparing the effect of test substances on crop plants which have been treated with safener and without safener it is possible to assess the effect of the safener substance.
(§8) Greenhouse Container Trials with Cereals
(§9) Mefenpyr 1 Day Prior to Herbicide Application

Summer barley = assay: as above; conditions: without safener; for Summer barley observed (%) herbicidal effect: 10 days after application; for Summer barley observed (%): 28 days after application
Procedure: as §5
Seeds of monocotyledonous and dicotyledonous weed plants and crop plants are placed in sandy loam soil in wood fibre pots or in plastic pots and are covered with earth and cultivated in a greenhouse and also, during the vegetation period, outdoors, outside of the greenhouse, under good growth conditions. 2 to 3 weeks after sowing, the trial plants are treated at the one- to three-leaf stage. The test compounds, formulated as wettable powders (WP) or liquids (EC), are sprayed onto the plants and the soil surface in various dosages, with a water application rate of 300 l/ha (converted) and with addition of wetting agent (0.2% to 0.3%). 3 to 4 weeks after the trial plants have been treated, the effect of the products is rated visually in comparison to untreated controls (herbicidal effect in percent: 100% effect=plants have died, 0% effect=like control plants).
as §6, §7, §8, §9

[6] = 20 ppm active compound, +AS (1000 ppm)
[7] = 20 ppm active compound, without AS
[8] = +RME + AS (in each case 1000 ppm)

Compound O=C1NC2(CCOCC2)C(O)=C1c1cc(OC(F)(F)F)ccc1Br [I-a-4] has an efficacy [1] of no less than 80%.
COC1CCC2(CC1)NC(=O)C(c1c(Cl)cc(OC(F)(F)F)cc1Cl)=C2O (single isomer, unassigned) [I-a-29] was tested, and the “Kill rate/% after 6 days” value ([2]; 4 ppm active compound, +AS (1000 ppm)) was 70%, the “Kill rate/% after 6 days” value ([2]; 4 ppm active compound, without AS) was 5% and the “Kill rate/% after 6 days” value [2, 6] was 85%. For the same compound, the “Kill rate/% after 6 days” value [2, 7] was 70%, the “Kill rate/% after 6 days” value ([3]; +AS (1000 ppm)) was 70% and the “Kill rate/% after 6 days” value ([3]; +RME (1000 ppm)) was 95%. For the same compound, the “Kill rate/% after 6 days” value [3, 8] was 100% and the “Kill rate/% after 6 days” value ([3]; without additive) was 0%.
For COC1CCC2(CC1)NC(=O)C(c1c(C)cc(OC(F)(F)F)cc1Cl)=C2O (single isomer, unassigned) [I-a-39], the “Kill rate/% after 6 days” value ([4]; +AS (1000 ppm)) was 40% and the “Kill rate/% after 6 days” value ([4]; without AS) was 10%.
COC1CCC2(CC1)NC(=O)C(c1c(Br)cc(OC(F)(F)F)cc1Br)=C2O (single isomer, unassigned) [I-a-32] was tested, and the “Kill rate/% after 6 days” value ([4]; +AS (1000 ppm)) was 85%, the “Kill rate/% after 6 days” value ([4]; without AS) was 0% and the “Kill rate/% after 6 days” value ([5]; +AS (1000 ppm)) was 30%. For the same compound, the “Kill rate/% after 6 days” value ([5]; +RME (1000 ppm)) was 70%, the “Kill rate/% after 6 days” value [5, 8] was 80% and the “Kill rate/% after 6 days” value ([5]; without additive) was 5%.
For COC1CCC2(CC1)NC(=O)C(c1c(C)cc(C)cc1OC(F)(F)F)=C2OC(C)=O (single isomer, unassigned) [(I-b-25)], the “Summer wheat observed (%) herbicidal effect” value (Summer wheat; 100 g of a.i./ha, 10 days after application, without safener (table of I-b-25)) was 20%.
CCOC1CCCC2(C1)NC(=O)C(c1c(C)cc(C)cc1OC(F)(F)F)=C2OC(C)=O (single isomer, unassigned) [(I-b-24)] was tested, and the “Summer wheat observed (%) herbicidal effect” value (Summer wheat; 12.5 g of a.i./ha, 10 days after application, without safener) was 30%, the “Summer wheat observed (%) herbicidal effect” value (Summer wheat; 25 g of a.i./ha, 10 days after application, without safener) was 40% and the “Summer wheat observed (%) herbicidal effect” value (Summer wheat; 50 g of a.i./ha, 10 days after application, without safener) was 40%. For the same compound, the “Summer wheat observed (%) herbicidal effect” value (Summer wheat; 50 g of a.i./ha, 28 days after application, without safener) was 20%, the “Summer wheat observed (%) herbicidal effect” value (Summer wheat; 100 g of a.i./ha, 10 days after application, without safener) was 40% and the “Summer wheat observed (%) herbicidal effect” value (Summer wheat; 100 g of a.i./ha, 28 days after application, without safener) was 20%. The “Summer barley observed (%) herbicidal effect” value (Summer barley; 12.5 g of a.i./ha) was 10%, the “Summer barley observed (%) herbicidal effect” value (Summer barley; 25 g of a.i./ha) was 20% and the “Summer barley observed (%) herbicidal effect” value (Summer barley; 50 g of a.i./ha) was 30%. For the same compound, the “Summer barley observed (%) herbicidal effect” value (Summer barley; 100 g of a.i./ha) was 30%.
COC1CCC2(CC1)NC(=O)C(c1c(C)cc(C)cc1OC(F)(F)F)=C2O (single isomer, unassigned) [I-a-49] was tested, and the “Summer wheat observed (%)” value (Summer wheat; 10 days after application, 25 g of a.i./ha, without safener) was 10%, the “Summer wheat observed (%)” value (Summer wheat; 10 days after application, 50 g of a.i./ha, without safener) was 20% and the “Summer wheat observed (%)” value (Summer wheat; 10 days after application, 100 g of a.i./ha, without safener) was 40%.
COC1CCC2(C1)NC(=O)C(c1c(C)cc(C)cc1OC(F)(F)F)=C2O (single isomer, unassigned) [I-a-50] was tested, and the “Summer wheat observed (%)” value (Summer wheat; 28 days after application, 12.5 g of a.i./ha, without safener) was 10%, the “Summer wheat observed (%)” value (Summer wheat; 28 days after application, 25 g of a.i./ha, without safener) was 40% and the “Summer wheat observed (%)” value (Summer wheat; 28 days after application, 50 g of a.i./ha, without safener) was 60%. For the same compound, the “Summer wheat observed (%)” value (Summer wheat; 28 days after application, 100 g of a.i./ha, without safener) was 70%, the “Summer barley observed (%)” value (Summer barley; 12.5 g of a.i./ha) was 8% and the “Summer barley observed (%)” value (Summer barley; 25 g of a.i./ha) was 30%. The “Summer barley observed (%)” value (Summer barley; 50 g of a.i./ha) was 50% and the “Summer barley observed (%)” value (Summer barley; 100 g of a.i./ha) was 60%.
For CCOC1CCC2(CC1)NC(=O)C(c1c(Br)cc(OC(F)(F)F)cc1Br)=C2O (single isomer, unassigned) [I-a-9], the “Kill rate/% after 6 days” value [2, 6] was 85% and the “Kill rate/% after 6 days” value [2, 7] was 65%.
